One data set has as its target T1, CHEK1 (Homo sapiens, UniProt O14757).
T1 construct: purchased DiscoveRx KINOMEscan (Ambit Biosciences)
T1 sequence (O14757 1-476): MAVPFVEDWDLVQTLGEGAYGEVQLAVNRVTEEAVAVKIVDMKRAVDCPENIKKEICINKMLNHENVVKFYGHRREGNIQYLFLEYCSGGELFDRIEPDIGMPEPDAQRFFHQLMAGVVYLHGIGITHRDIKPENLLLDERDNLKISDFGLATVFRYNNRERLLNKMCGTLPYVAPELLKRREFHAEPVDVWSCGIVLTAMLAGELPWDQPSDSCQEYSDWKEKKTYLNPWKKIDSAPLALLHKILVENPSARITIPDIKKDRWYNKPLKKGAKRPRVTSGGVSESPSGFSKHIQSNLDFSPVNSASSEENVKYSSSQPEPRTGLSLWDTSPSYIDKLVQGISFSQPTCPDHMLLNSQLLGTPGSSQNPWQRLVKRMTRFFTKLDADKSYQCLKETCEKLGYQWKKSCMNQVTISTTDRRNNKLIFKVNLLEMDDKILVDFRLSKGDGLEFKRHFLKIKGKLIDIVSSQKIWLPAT
More on the design: method as in earlier work. The following applies: Table S1; cited from earlier work.

A further data set concerns the target T2, ACVR2A (Homo sapiens, UniProt P27037).
T2 construct: purchased DiscoveRx KINOMEscan (Ambit Biosciences)
Nature of the data set: KINOMEscan panel screen. The format is binding. As to conditions: read-out: Percent Control(%).

The target in the next data set is T3, CTK (Homo sapiens, UniProt P42679).
T3 construct: purchased DiscoveRx KINOMEscan (Ambit Biosciences)
Nature of the data set: KINOMEscan panel screen. Format: binding. The following applies: read-out: Percent Control(%).

A further data set concerns the target T4, GAK (Homo sapiens, UniProt O14976).
T4 construct: purchased DiscoveRx KINOMEscan (Ambit Biosciences)
Briefly: KINOMEscan panel screen. The format is binding. The following applies: read-out: Percent Control(%).

The target of the next data set is T5, ITK (Homo sapiens, UniProt Q08881).
T5 construct: purchased DiscoveRx KINOMEscan (Ambit Biosciences)
Briefly: KINOMEscan panel screen. The format is binding. As to conditions: read-out: Percent Control(%).

Another data set addresses T6, KIT(V559D) (Homo sapiens, UniProt P10721, V559D).
T6 construct: purchased DiscoveRx KINOMEscan (Ambit Biosciences)
Nature of the data set: KINOMEscan panel screen. Format: binding. The following applies: read-out: Percent Control(%).

The target in another data set is T7, MAP3K4 (Homo sapiens, UniProt Q9Y6R4).
T7 construct: purchased DiscoveRx KINOMEscan (Ambit Biosciences)
Briefly: KINOMEscan panel screen. The format is binding. The following applies: read-out: Percent Control(%).

In a further data set the target is T8, MET(Y1235D) (Homo sapiens, UniProt P08581, Y1235D).
T8 construct: purchased DiscoveRx KINOMEscan (Ambit Biosciences)
Briefly: KINOMEscan panel screen. The following applies: read-out: Percent Control(%). Format: binding.

Another data set has as its target T9, MKNK1 (Homo sapiens, UniProt Q9BUB5).
T9 construct: purchased DiscoveRx KINOMEscan (Ambit Biosciences)
Briefly: KINOMEscan panel screen. Format: binding. As to conditions: read-out: Percent Control(%).

The next data set addresses T10, MKNK2 (Homo sapiens, UniProt Q9HBH9).
T10 construct: purchased DiscoveRx KINOMEscan (Ambit Biosciences)
Briefly: KINOMEscan panel screen. The following applies: read-out: Percent Control(%). Format: binding.

The target of the next data set is T11, MRCKA (Homo sapiens, UniProt Q5VT25).
T11 construct: purchased DiscoveRx KINOMEscan (Ambit Biosciences)
Nature of the data set: KINOMEscan panel screen. Format: binding. The following applies: read-out: Percent Control(%).

Another data set has as its target T12, NEK10 (Homo sapiens, UniProt Q6ZWH5).
T12 construct: purchased DiscoveRx KINOMEscan (Ambit Biosciences)
Nature of the data set: KINOMEscan panel screen. Format: binding. As to conditions: read-out: Percent Control(%).

Another data set deals with T13, PAK2 (Homo sapiens, UniProt Q13177).
T13 construct: purchased DiscoveRx KINOMEscan (Ambit Biosciences)
Nature of the data set: KINOMEscan panel screen. The format is binding. The following applies: read-out: Percent Control(%).

In the next data set the target is T14, PAK4 (Homo sapiens, UniProt O96013).
T14 construct: DNA tag (qPCR read-out); purchased Ambit Biosciences (KINOMEscan service)
Nature of the data set: KINOMEscan panel screen. Format: binding. As to conditions: read-out: Percent Control(%).

Another data set addresses T15, PFCDPK1(P.falciparum) (Plasmodium falciparum, UniProt P62344).
T15 construct: purchased DiscoveRx KINOMEscan (Ambit Biosciences)
Briefly: KINOMEscan panel screen. As to conditions: read-out: Percent Control(%). Format: binding.

The next data set addresses T16, PKN1 (Homo sapiens, UniProt Q16512).
T16 construct: purchased DiscoveRx KINOMEscan (Ambit Biosciences)
Briefly: KINOMEscan panel screen. Format: binding. The following applies: read-out: Percent Control(%).

The target of another data set is T17, S6K1 (Homo sapiens, UniProt P23443).
T17 construct: purchased DiscoveRx KINOMEscan (Ambit Biosciences)
Briefly: KINOMEscan panel screen. The following applies: read-out: Percent Control(%). Format: binding.

Another data set has as its target T18, SRPK1 (Homo sapiens, UniProt Q96SB4).
T18 construct: purchased DiscoveRx KINOMEscan (Ambit Biosciences)
Briefly: KINOMEscan panel screen. Format: binding. As to conditions: read-out: Percent Control(%).

Another data set deals with T19, YANK3 (Homo sapiens, UniProt Q86UX6).
T19 construct: purchased DiscoveRx KINOMEscan (Ambit Biosciences)
Nature of the data set: KINOMEscan panel screen. As to conditions: read-out: Percent Control(%). Format: binding.

Another data set deals with T20, DCLK1 (Homo sapiens, UniProt O15075).
T20 construct: purchased Ambit Biosciences (KINOMEscan)
Briefly: KINOMEscan kinase binding assay (Kd).

The next data set deals with T21, MAST1 (Homo sapiens, UniProt Q9Y2H9).
T21 construct: purchased DiscoveRx KINOMEscan (Ambit Biosciences)
Briefly: KINOMEscan kinase binding assay (Kd).

Data set [1] deals with MYC, CCND1, NKD1 transcripts in STF3a cells. Briefly: Real-time qPCR of β-catenin target genes in STF3a cells. The format is cell-based. The following applies: 24 h.
A further data set concerns MV4-11 tumor xenograft. Nature of the data set: MV4-11 tumor xenograft model. Format: in vivo. The procedure:
Female 5- to 6-week-old NOD-SCID mice (Beijing HFK Bioscience) were housed in a sterile environment and fed a standard diet ad libitum. […] A 100- μl aliquot of the cell suspension was injected subcutaneously into the hind flank of each mouse to establish the xenograft model. […] The tumor volume was calculated using the following formula: volume = a × b^2/2 (a, long diameter; b, short diameter).
Paraffin-embedded tumors were subjected to immunostaining with Ki67 (Thermo Fisher), transferase-mediated dUTP nick-end labeling (TUNEL, Thermo Fisher). The representative images were taken on a LEICA DM 2500 microscope with a LEICA DFC425 C camera. Image acquisition software: LAS V3.7.
(a) MV4-11 cells (10^7 cells/mouse) were s.c. inoculated into NOD-SCID mice. […] The tumor volume and body weight were measured every 3 days during the treatment. The mean values ± SD are shown. […] Ki67 and TUNEL were detected with immunohistochemical. Representative images were shown. […] Tumors were harvested at the indicated time points, and the FLT3 signaling pathway was detected using western blot assays. The experiments were performed on three groups of mice. The results of the other two groups are given in Supplementary Data (Supplementary Fig. S8). […] The results shown in the histogram are the statistic data of three groups of mice. ns, not statistically significant, *P < 0.05, **P < 0.01. (e) The same harvested tumors were detected using real-time qPCR assays to test the expression of AXIN2 and NKD1 (the target genes of Wnt/β-catenin pathway). All results were normalized to the level of GAPDH (mean ± SEM from triplicate groups). ns, not statistically significant, *P < 0.05, **P < 0.01. (f) Kaplan-Meier plot of survival. […] The plasma concentrations were determined using liquid–liquid extraction followed by high-performance liquid chromatography (HPLC) with tandem mass spectrometric detection.

Another data set concerns PLC/PRF/5. Nature of the data set: MTT cell viability assay. The following applies: Homo sapiens, PLC-PRF-5, 72 h.

By IC50 is commonly meant the concentration at which inhibition is half-maximal. The Kd is the concentration at which binding is half-saturated. Higher therefore signals lower affinity.

T3 sequence (P42679 whole entry): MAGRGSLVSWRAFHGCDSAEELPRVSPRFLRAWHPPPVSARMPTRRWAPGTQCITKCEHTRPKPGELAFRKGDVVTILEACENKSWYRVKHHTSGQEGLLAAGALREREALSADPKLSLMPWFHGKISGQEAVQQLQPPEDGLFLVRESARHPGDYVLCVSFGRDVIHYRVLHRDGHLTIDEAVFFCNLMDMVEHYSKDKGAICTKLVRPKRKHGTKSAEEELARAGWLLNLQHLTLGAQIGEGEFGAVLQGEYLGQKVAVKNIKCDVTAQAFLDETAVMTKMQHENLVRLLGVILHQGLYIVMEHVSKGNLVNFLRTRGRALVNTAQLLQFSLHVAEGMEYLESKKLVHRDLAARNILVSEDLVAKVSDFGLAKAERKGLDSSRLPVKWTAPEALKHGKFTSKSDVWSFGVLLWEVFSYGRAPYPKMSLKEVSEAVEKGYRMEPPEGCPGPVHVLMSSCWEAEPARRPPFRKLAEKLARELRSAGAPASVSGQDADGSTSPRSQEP
T8 sequence (P08581 1078-1345 Y1235D limits assumed): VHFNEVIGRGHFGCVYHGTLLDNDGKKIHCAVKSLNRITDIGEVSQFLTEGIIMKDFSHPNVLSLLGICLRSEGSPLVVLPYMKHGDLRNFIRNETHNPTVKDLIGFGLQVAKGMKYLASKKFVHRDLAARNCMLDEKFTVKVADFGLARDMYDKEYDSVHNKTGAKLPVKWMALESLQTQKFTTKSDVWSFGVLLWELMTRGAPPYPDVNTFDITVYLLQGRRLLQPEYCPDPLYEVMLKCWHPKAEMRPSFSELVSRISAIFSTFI
T19 sequence (Q86UX6 whole entry): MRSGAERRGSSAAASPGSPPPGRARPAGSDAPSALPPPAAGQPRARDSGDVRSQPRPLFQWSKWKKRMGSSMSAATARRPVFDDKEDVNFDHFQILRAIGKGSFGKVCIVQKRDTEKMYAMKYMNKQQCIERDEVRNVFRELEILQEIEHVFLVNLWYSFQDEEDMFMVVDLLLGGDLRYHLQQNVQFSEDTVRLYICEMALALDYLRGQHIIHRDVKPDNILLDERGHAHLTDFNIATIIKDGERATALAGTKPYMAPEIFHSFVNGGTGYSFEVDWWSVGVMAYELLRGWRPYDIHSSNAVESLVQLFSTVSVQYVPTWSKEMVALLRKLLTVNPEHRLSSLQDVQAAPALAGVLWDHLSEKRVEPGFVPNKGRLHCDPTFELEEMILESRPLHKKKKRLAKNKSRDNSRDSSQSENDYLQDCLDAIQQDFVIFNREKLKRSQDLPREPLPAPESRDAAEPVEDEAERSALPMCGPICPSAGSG
T5 sequence (Q08881 whole entry): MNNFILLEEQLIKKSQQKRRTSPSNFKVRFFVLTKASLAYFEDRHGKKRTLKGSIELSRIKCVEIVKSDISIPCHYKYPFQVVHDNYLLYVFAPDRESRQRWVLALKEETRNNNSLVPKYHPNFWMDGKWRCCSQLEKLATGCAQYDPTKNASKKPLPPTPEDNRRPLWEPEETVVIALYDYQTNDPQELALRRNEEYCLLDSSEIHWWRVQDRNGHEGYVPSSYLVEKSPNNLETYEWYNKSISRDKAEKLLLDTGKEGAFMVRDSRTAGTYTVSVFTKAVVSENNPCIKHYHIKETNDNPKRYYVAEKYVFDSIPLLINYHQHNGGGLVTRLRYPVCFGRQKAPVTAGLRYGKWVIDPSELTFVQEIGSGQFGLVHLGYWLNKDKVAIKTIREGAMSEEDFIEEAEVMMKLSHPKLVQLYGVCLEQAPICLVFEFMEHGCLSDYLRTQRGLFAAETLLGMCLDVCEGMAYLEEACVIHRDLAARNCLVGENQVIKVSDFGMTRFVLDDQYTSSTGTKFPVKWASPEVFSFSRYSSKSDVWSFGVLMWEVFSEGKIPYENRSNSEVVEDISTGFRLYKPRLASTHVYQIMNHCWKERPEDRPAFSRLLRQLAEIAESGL
T17 sequence (P23443 whole entry): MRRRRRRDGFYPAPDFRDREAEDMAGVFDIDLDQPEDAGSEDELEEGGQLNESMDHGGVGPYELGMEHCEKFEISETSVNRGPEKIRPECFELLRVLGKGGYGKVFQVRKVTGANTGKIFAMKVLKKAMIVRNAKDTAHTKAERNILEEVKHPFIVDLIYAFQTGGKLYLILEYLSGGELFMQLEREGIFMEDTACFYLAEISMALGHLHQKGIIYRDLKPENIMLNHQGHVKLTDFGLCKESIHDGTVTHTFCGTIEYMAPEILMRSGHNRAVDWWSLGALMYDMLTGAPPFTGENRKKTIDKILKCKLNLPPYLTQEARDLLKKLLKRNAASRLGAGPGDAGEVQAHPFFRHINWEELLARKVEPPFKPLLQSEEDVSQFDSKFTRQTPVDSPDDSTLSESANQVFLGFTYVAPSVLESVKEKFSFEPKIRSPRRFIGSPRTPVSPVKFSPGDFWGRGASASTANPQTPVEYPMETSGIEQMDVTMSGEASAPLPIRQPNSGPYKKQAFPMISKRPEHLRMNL
T14 sequence (O96013 whole entry): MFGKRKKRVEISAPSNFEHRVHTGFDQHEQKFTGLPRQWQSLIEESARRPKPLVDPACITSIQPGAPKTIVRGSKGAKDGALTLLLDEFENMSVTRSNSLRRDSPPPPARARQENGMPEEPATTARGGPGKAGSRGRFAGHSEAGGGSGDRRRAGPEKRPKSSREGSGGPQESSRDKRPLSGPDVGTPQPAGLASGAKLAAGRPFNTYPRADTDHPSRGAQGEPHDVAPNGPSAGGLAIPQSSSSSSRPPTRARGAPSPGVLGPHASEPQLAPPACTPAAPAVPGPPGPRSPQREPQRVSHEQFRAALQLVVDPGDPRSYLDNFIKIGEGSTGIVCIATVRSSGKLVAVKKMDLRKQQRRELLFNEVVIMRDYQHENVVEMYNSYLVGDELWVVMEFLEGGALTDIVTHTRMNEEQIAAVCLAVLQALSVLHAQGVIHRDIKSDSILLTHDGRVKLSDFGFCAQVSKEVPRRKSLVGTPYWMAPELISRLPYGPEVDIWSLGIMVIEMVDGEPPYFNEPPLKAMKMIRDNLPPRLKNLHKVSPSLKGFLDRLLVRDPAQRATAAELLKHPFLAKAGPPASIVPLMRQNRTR
T11 sequence (Q5VT25 whole entry): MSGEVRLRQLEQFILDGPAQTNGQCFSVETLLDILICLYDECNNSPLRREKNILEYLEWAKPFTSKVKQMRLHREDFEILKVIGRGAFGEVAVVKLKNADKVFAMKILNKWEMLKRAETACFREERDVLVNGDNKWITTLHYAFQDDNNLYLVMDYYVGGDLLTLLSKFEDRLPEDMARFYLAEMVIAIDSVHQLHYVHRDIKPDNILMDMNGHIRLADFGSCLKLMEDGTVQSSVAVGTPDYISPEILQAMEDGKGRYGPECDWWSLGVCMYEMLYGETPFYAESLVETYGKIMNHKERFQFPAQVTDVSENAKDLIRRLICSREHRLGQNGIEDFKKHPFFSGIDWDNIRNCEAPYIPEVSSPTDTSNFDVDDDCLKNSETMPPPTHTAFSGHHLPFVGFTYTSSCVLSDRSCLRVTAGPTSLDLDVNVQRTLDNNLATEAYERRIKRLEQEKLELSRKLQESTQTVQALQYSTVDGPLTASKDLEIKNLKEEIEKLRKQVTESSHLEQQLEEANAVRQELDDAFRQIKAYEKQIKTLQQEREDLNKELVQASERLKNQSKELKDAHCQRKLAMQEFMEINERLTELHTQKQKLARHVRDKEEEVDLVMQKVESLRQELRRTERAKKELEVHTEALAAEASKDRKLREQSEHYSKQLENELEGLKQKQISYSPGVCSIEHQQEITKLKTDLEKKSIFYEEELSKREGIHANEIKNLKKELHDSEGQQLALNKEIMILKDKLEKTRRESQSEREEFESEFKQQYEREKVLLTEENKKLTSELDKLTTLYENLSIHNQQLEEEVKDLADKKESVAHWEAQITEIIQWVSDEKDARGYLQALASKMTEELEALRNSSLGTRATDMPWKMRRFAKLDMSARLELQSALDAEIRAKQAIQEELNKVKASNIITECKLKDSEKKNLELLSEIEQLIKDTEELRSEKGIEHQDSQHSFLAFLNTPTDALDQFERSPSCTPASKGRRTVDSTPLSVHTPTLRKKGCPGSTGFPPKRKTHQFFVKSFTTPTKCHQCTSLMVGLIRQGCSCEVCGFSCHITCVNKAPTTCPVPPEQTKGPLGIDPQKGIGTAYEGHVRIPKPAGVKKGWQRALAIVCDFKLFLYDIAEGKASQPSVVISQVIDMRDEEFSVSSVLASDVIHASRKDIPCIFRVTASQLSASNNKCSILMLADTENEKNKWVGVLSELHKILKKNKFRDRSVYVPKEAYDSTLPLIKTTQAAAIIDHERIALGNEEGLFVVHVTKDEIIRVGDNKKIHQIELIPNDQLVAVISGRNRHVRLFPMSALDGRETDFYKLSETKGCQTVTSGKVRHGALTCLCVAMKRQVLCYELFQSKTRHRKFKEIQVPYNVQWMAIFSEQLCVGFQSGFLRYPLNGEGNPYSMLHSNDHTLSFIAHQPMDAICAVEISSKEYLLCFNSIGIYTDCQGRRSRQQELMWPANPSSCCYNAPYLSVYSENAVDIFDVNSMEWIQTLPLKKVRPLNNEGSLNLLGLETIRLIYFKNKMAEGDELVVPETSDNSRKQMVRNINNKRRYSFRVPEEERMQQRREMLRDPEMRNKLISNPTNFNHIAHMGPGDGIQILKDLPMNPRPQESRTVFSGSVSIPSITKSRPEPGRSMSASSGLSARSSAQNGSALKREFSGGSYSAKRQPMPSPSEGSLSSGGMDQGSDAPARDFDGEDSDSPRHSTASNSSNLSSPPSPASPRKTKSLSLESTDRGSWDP

Consider `O=C(Nc1ccc(Oc2ncnc3[nH]ncc23)cc1)Nc1ccc(Cl)c(C(F)(F)F)c1` [Compound 1, 1-(4-(1H-pyrazolo[3,4-d]pyrimidin-4-yloxy)phenyl)-3-(4-chloro-3-(trifluoromethyl)phenyl)urea], for which the IC50 at CHEK1 was over 10 µM.
As for `CC(C)(C)c1cc(NC(=O)Nc2ccc(Oc3ncnc4[nH]ncc34)c(F)c2)no1` [SKLB-677, 1-(4-(1H-pyrazolo[3,4-d]pyrimidin-4-yloxy)-3-fluorophenyl)-3-(5-tert-butylisoxazol-3-yl)urea], the remaining binding at 10 µM is 100% at ACVR2A; 37% at CTK; 100% on GAK; 36% at ITK; 0% at KIT(V559D); 69% at MAP3K4. Further, the remaining binding at 10 µM at MET(Y1235D) amounted to 5.4%; on MKNK1, 0.1%; on MKNK2, 1%; on MRCKA, 100%; at NEK10, 93%; on PAK2, 79%. Also, the remaining binding at 10 µM on PAK4 is 100%; at PFCDPK1(P.falciparum), 26%; at PKN1, 82%; on S6K1, 54%; at SRPK1, 96%; on YANK3 it was 97%. Further, the Kd on DCLK1 and on MAST1 was over 10 µM in each case. Besides, the “MYC, CCND1, and NKD1 transcripts” value in data set [1] is reported as “reduced”. This compound showed a tumor inhibition rate in the data set with MV4-11 tumor xenograft (1 mg/kg/d orally once per day for 21 days) of 66%. In addition, the tumor response result in the data set on MV4-11 tumor xenograft (3 mg/kg/d orally for 8 days) and in the data set with MV4-11 tumor xenograft (10 mg/kg/d orally for 3 days) was “complete tumor regression” each time. For the same compound, the “toxicity in xenograft mice” value in the data set with MV4-11 tumor xenograft (10 mg/kg/d or 3 mg/kg/d orally) is listed as “without obvious toxicity”. Also, the “Ki67-positive cells in tumors compared with control group” value in the data set on MV4-11 tumor xenograft (immunohistochemistry) is given as “evidently fewer”. In addition, the “percentage of TUNEL-positive cells in tumors compared with vehicle” value in the data set on MV4-11 tumor xenograft (immunohistochemistry) was “increased”. In the data set with PLC/PRF/5, this compound gave an IC50 of over 10 µM.

(Values after publication PMC4620497 (Scientific Reports, 2015).)
